Data from patent publication US20080177075A1, “Compositions For Progeny Gender Control” (AQ+PLC Stephen Mabbott Associates, priority 2004, published 2008).

Source text: Suitable aqueous based compositions can be prepared by using an intermediate diluent such as a polyol, including glycols, preferably propylene glycol, glycerine, or sorbitol, and a wetting agent.

## Oc1cccc2cccnc12 [8-hydroxyquinoline]
  solubility in aqueous solution: generally insoluble or only poorly soluble
